# In patent publication US11730746B2, “17beta-heterocyclyl-digitalis like compounds for the treatment of heart failure” (priority 2018, dated 2023):
# Read-outs that look alike come from different tables or passages of the source. Marks after values point to notes of the source that are not given here.
# Legend:
# SERCA2a = target: T1, SERCA2a (Canis lupus familiaris, UniProt O46674); assay: SERCA2a ATPase activity in heart-derived SR microsomes from normal dog; type: biochemical; conditions: for Vmax (SERCA2a ATPase activity): mean ± SD
# T1 construct: pre-incubated with 2 μg of microsomes; from tissue; host or cells: dog heart left ventricle, SR microsomes
# T1 sequence (O46674 whole entry): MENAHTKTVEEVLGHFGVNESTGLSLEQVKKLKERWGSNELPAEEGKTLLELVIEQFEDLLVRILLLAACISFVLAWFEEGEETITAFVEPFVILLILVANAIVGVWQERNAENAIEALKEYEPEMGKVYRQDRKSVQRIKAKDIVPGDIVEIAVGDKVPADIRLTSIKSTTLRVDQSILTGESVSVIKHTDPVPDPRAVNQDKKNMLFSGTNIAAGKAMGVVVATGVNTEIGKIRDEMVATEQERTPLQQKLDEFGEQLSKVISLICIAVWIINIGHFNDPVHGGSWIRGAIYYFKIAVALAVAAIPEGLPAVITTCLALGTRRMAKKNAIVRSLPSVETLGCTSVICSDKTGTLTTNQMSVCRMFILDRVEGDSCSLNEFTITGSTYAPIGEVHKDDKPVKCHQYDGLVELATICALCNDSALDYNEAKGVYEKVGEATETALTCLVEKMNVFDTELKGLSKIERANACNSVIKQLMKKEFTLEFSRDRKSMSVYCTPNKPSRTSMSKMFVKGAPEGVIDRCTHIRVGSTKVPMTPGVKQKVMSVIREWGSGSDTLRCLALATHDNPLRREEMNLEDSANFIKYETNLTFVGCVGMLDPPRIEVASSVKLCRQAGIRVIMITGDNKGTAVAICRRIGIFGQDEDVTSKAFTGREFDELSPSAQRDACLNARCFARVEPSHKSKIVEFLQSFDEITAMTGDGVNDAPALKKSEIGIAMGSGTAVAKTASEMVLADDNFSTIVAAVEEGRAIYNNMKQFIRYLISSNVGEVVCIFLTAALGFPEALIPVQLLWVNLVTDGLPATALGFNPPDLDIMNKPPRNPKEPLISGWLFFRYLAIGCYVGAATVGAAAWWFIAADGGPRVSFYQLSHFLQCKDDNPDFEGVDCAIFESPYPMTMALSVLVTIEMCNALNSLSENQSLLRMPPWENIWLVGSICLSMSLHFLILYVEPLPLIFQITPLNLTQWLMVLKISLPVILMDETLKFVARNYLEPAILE
# Procedure: Left ventricle tissues were dissected, homogenized in 4 volumes of 10 mM NaHCO3, pH 7, 1 mM PMSF, 10 μg/ml Aprotinin and Leupeptin and centrifuged at 12,000 g for 15 minutes, as published (Nediani C. et al. J Biol Chem. 1996; 271:19066-73). Supernatants were filtered and centrifuged at 100,000 g for 30 min. Contractile proteins were extracted by suspending the pellets with 0.6 M KCl, 30 mM Histidine, pH 7 and further centrifugation at 100,000 g for 30 min. Final pellets were reconstituted with 0.3 M Sucrose, 30 mM Histidine, pH 7.
# SERCA2a activity was measured “in vitro” as ^32P-ATP hydrolysis at different Ca^2+ concentrations (100-4000 nM) in the absence and presence of the tested compounds, as described (Micheletti R. et al. Am J Card 2007; 99:24A-32A). Increasing concentrations of each compound (from 1 to 100 nM) were pre-incubated with 2 μg of microsomes for 5 min at 4° C. in 80 μl of a solution containing 100 mM KCl, 5 mM MgCl2, 1 μM A23187, 20 mM Tris, pH 7.5. Then, 20 μl of 5 mM Tris-ATP containing 50 nCi of ^32P-ATP (3-10 Ci/mmol, Perkin Elmer) were added. The ATP hydrolysis was continued for 15 min at 37° C. and the reaction was stopped by acidification with 100 μl of 20% v/v ice-cold perchloric acid. ^32P was separated by centrifugation with activated charcoal (Norit A, SERVA) and the radioactivity was measured. SERCA2a-dependent activity was identified as the portion of total hydrolytic activity inhibited by 10 μM cyclopiazonic acid (Seidler N W. et al. J Biol Chem. 1989; 264:17816-23).
# Dose-response curves were fitted by using a sigmoidal curve fitting software and the maximal velocity (Vmax) activity and the Kd Ca^2+ were calculated (Synergy Software KaleidaGraph 3.6).
# dog renal Na,K-ATPase = target: T2, dog renal Na,K-ATPase (Canis lupus familiaris, UniProt P50997); assay: Inhibition of dog renal Na,K-ATPase activity (32P-ATP release); type: biochemical
# T2 construct: incubated with 0.3 μg of purified dog kidney enzyme; from tissue; host or cells: dog kidney outer medulla
# Procedure: Kidneys were sliced and the outer medulla was dissected, pooled and suspended (1 g/10 ml) in a sucrose-histidine solution, containing 250 mM sucrose, 30 mM histidine and 5 mM EDTA, pH 7.2 and homogenized. […] The pellet was suspended in the sucrose-histidine buffer and incubated for 20 min with a sodium-dodecyl-sulphate (SDS) solution dissolved in a gradient buffer, containing 25 mM imidazole and 1 mM EDTA, pH 7.5. […] The pellet was suspended in the gradient buffer.
# Increasing concentrations of the standard ouabain, or tested compound, were incubated with 0.3 μg of purified dog kidney enzyme for 10 min at 37° C. in 120 μl final volume of a medium, containing 140 mM NaCl, 3 mM MgCl2, 50 mM Hepes-Tris, 3 mM ATP, pH 7.5. […] The inhibitory activity was expressed as percent of the control samples carried out in the absence of ouabain or tested compound.
# guinea pig = assay: Haemodynamics: inotropic and lethal dose in guinea pig; type: in vivo; conditions: i.v. infusion 0.3 mg/kg/min
# Procedure: Guinea-pigs (400-450 g) were anaesthetized with urethane (1.5 g/kg ip). A microtip pressure transducer was introduced into the left ventricle through the right carotid artery to measure ventricular pressure (LVP); the transducer was coupled with a transducer amplifier. Recordings were fed to a polygraph and analyzed. A polythene cannula was inserted into a jugular vein for drug infusion. After a stabilization period, the test substance was injected at the rate of 0.16 ml/min for 90 min (Micheletti R et al. J Pharmacol Exp Ther 2002; 303:592-600).
# The following parameters were obtained: heart rate (HR), left ventricular pressure (LVP), maximal velocity of pressure rise (+dP/dtmax) and decay (−dP/dtmax), ECG. For inotropy, the time elapsed until +dP/dtmax increased by 80% was identified in order to determine the ED80 (dose increasing basal +dP/dtmax by 80%). The time to the maximum increase in +dP/dtmax was also identified to determine the maximum effective dose, EDmax. Lusitropy was characterized by the dose inducing the maximum decrease in −dP/dtmax, (EDmax). As indexes of toxicity, the dose administered until the onset of arrhythmias and the dose inducing death (LD) were calculated. The safety ratio for the tested compound was also calculated as the ratio between LD and ED80.
# [1] = tested on: guinea pig isolated cardiomyocytes; assay: SR Ca2+ uptake function (loading protocol) in isolated ventricular cardiomyocytes; type: cell-based; conditions: 100 nM
# Procedure: The compounds were characterized for their effect on (i) SR Ca^2+ uptake function, (ii) action potential (AP) in myocytes freshly dissociated from guinea-pig ventricles by retrograde coronary perfusion with enzymatic solution (Rocchetti M et al. J Pharmacol Exper Therap 2005; 313(1):207-215).
# Drug effects on SR Ca^2+ uptake rate were evaluated with an SR “loading protocol” specifically devised to rule out the contribution of the Na/Ca exchanger (NCX) and to assess the uptake rate starting at low levels of SR Ca^2+ loading. Under voltage-clamp conditions, intracellular Ca^2+ concentration was dynamically measured by epifluorescence (Fluo4-AM). Membrane current, whose time-dependent component mainly reflected ICaL, was simultaneously recorded. The SR loading protocol consisted in emptying the SR (by a brief caffeine pulse) and then progressively refilling it by voltage steps activating Ca^2+ influx through the sarcolemmal Ca^2+ channel (ICaL). NCX was blocked by omission of Na^+ from intracellular and extracellular solutions. The procedure is in agreement with published methods, with minor modifications (Rocchetti M et al. J Pharmacol Exper Therap 2005; 313(1):207-215).
# Drug effects on SR Ca^2+ uptake were analysed by considering multiple parameters: 1) the rate at which Ca^2+ transient (CaT) amplitude increased during the loading protocol, which reflects the rate at which the SR refilled and 2) the time constant of cytosolic Ca^2+ decay (Tdecay) within each pulse, reflecting net Ca^2+ transport rate (by SERCA2a) across the SR membrane (a decrease in Tdecay corresponds to enhanced SR Ca^2+ uptake).
# [2] = purified dog kidney enzyme, read-out: IC50, inhibition of dog renal Na,K-ATPase
Structure (SMILES),% increase vs Control (SERCA2a Vmax) (SERCA2a; compound 1 nM),Vmax (SERCA2a ATPase activity) (SERCA2a; compound 1 nM),% increase vs Control (SERCA2a Vmax) (SERCA2a; compound 10 nM),Vmax (SERCA2a ATPase activity) (SERCA2a; compound 10 nM),"IC50 (dog renal Na,K-ATPase) [nM]",% increase vs Control (SERCA2a Vmax) (SERCA2a; compound 100 nM) [%*],Vmax (SERCA2a ATPase activity) (SERCA2a; compound 100 nM),"IC50 (dog renal Na,K-ATPase; [2]) [nM]",also measured
"C[C@]12CC[C@H](O)C[C@H]1CCC1C2CC[C@]2(C)[C@@H](c3csc(N=C(N)N)n3)CC[C@]12O (stereo partly drawn) [CVie 102, 3β-hydroxy-5β-10β-methyl-13β-methyl-14β-hydroxy-17β-(2-guanidino-thiazol-4-yl)androstane]",25%*,2.949 ± 0.321 (n = 6) μmol/min/mg prot,13%*,2.660 ± 0.232 (n = 12) μmol/min/mg prot,1700,–,–,–,"Dead/treated number (guinea pig): 11/11; ED80 (guinea pig): 3.8 mg/kg; Lethal dose (guinea pig): 12.57 mg/kg; E max % increase in dP/dtmax (guinea pig; 90 min): 138.3%; ED max (guinea pig; cumulative dose): 8.6 mg/kg; LD/ED80 (guinea pig; safety ratio): 5.42; rate of Ca2+ transient (CaT) increment during SR reloading ([1]; FIG. 1A, 1C): increased; time constant of cytosolic Ca2+ decay within each pulse (τdecay) ([1]; FIG. 1B, 1D): reduced"
"C[C@]12CC[C@H](O)C[C@H]1CCC1C2CC[C@]2(C)[C@@H](c3cc[nH]n3)CC[C@]12O (stereo partly drawn) [CVie 103, 3β-hydroxy-5β-10β-methyl-13β-methyl-14β-hydroxy-17β-(pyrazol-3-yl)androstane]",–,–,11%*,2.569 ± 0.278 (n = 7) μmol/min/mg prot,4000,16,2.688 ± 0.285 (n = 7) μmol/min/mg prot,–,–
"C[C@]12[C@H](O)CC3C(CC[C@@H]4C[C@@H](O)CC[C@]34C)[C@@]1(O)CC[C@@H]2c1c[nH]cn1 (stereo partly drawn) [CVie 104, 3β-hydroxy-5β-10β-methyl-12β-hydroxy-13β-methyl-14β-hydroxy-17β-(imidazol-4-yl)androstane]",11%*,1.437 ± 0.158 (n = 4) μmol/min/mg prot,20%*,1.551 ± 0.275 (n = 4) μmol/min/mg prot,–,–,–,1610,–
"C[C@]12[C@H](O)CC3C(CC[C@@H]4C[C@@H](O)CC[C@]34C)[C@@]1(O)CC[C@@H]2c1csc(N=C(N)N)n1 (stereo partly drawn) [CVie 105, 3β-hydroxy-5β-10β-methyl-12β-hydroxy-13β-methyl-14β-hydroxy-17β-(2-guanidino-thiazol-4-yl)androstane]",–,–,–,–,530,–,–,–,–
"C[C@]12CC[C@H](O)C[C@H]1CCC1C2CC[C@]2(C)[C@@H](c3cn(CCCN)cn3)CC[C@]12O (stereo partly drawn) [CVie 106, 3β-hydroxy-5β-10β-methyl-13β-methyl-14β-hydroxy-17β-(N-(3-aminopropyl)-imidazol-4-yl)androstane]",22% *,3.113 ± 0.157 (n = 3) μmol/min/mg prot,15%,2.935 ± 0.403 (n = 3) μmol/min/mg prot,–,–,–,10000,–
"C[C@]12CC[C@H](O)C[C@H]1CCC1C2CC[C@]2(C)[C@@H](c3cc(CCCN)on3)CC[C@]12O (stereo partly drawn) [CVie 107, 3β-hydroxy-5β-10β-methyl-13β-methyl-14β-hydroxy-17β-((5-(3-aminopropyl)-isoxazol-3-yl))androstane]",–,–,7%,2.508 ± 0.339 (n = 3) μmol/min/mg prot,–,17,2.751 ± 0.171 (n = 3) μmol/min/mg prot,150,–
"C[C@]12CC[C@H](O)C[C@H]1CCC1C2CC[C@]2(C)[C@@H](CCc3cc(CCCN)on3)CC[C@]12O (stereo partly drawn) [CVie 108, 3β-hydroxy-5β-10β-methyl-13β-methyl-14β-hydroxy-17β-((5-(3-aminopropyl)-isoxazol-3-yl)-ethyl)androstane]",15%,2.94 ± 0.306 (n = 3) μmol/min/mg prot,16%*,2.980 ± 0.441 (n = 4) μmol/min/mg prot,–,–,–,3300,–
C[C@]12CC[C@H](O)C[C@H]1CCC1C2CC[C@]2(C)[C@@H](CCc3cc(CCN)on3)CC[C@]12O (some centres unmarked) [CVie 109],–,–,14%,2.859 ± 0.504 (n = 4) μmol/min/mg prot,–,15,2.889 ± 0.305 (n = 4) μmol/min/mg prot,1000,–
C[C@]12CC[C@H](O)C[C@H]1CCC1C2CC[C@]2(C)[C@@H](/C=C/c3cc(CN)on3)CC[C@]12O (some centres unmarked) [CVie 110],19%,2.924 ± 0.549 (n = 3) μmol/min/mg prot,18%*,2.903 ± 0.188 (n = 3) μmol/min/mg prot,330,–,–,–,–
"C[C@]12CC[C@H](O)C[C@H]1CC[C@@H]1[C@@H]2C[C@@H](O)[C@]2(C)[C@@H](C3=CC(=O)OC3)CC[C@]12O [DIGOXIGENIN, Digoxigenin, reference compound]",–,–,–,–,230,–,–,–,–
